# Assay results from article PMC8166143, “Ecotoxicity evaluation of polymeric nanoparticles loaded with ascorbic acid for fish nutrition in aquaculture” (Journal of Nanobiotechnology, 2021).
# Columns and labels:
# [1] = test system: zebrafish embryos and larvae; assay: Toxicity evaluation using zebrafish (mortality, LC values, hatching, morphology; 3.12-400 mg/L, 96 h)
# Protocol: (§1) Preliminary tests were performed to determine the lethal concentration (LC50, mg/L). For this experiment, 24-well polystyrene plates were used, with the embryos being individually exposed to 2 mL of the test solution (n = 24 per group). […] The positive control was 4 mg L^−1 of 3,5-dichloroaniline (≥ 98%, Sigma-Aldrich). The plates were examined every 24 h to determine the mortality of the embryos and larvae, using a stereomicroscope (Model SMZ 2 LED, Optika) and Optika View v. 7.1.1.5 software. […] 1.17.04 software.
# [2] = as above; details: zebrafish (Danio rerio), in vivo
# Protocol: as §1
# [3] = test system: zebrafish embryos and larvae; details: after 96 h of exposure
# Protocol: The embryos were kept individually in 24-well polystyrene plates (n = 24 organisms per group), with addition of 2 mL of test solution to each well. The temperature was maintained at 26 ± 0.2 °C and a light/dark photoperiod of 14/10 h was provided. Determinations were made of mortality and morphological abnormalities including changes in heartbeat, presence of coagulation, undetected tail, change in head formation, disintegration of larvae, pericardial edema, yolk sac edema and opacity, and defective development of the somite.
# The total length of the larvae (mm) was measured from the mouth to the terminal portion of the tail.
# Mortality was defined as the presence of coagulation, lack of heartbeat, failure of somite development, and undeveloped tail. The hatching rate was calculated considering the successful hatching of embryos in relation to the total number of embryos in each replicate. The observed malformations included pericardial edema, tail deformity, yolk sac edema, and spinal curvature.
# The malformation rate was determined considering the percentage of malformed larvae in relation to the total number of larvae that hatched during the test. […] The equipment was previously calibrated using a millimeter scale.
# [4] = AA oxidation kinetics induced by peroxymonosulfate (Oxone); assay type: physicochemical
# Protocol: (§2) The oxidation profiles of AA, alone and encapsulated in the CS and PCL nanoparticles, were evaluated using the method described previously. A stock solution of AA was prepared by dissolving 50 mg of AA in 250 mL of stabilizing solution (EDTA). The absorbance of this solution was measured at 265 nm, with the stabilizing solution used as the background. Separately, a solution of Oxone (potassium peroxymonosulfate, Sigma-Aldrich) was prepared in 50 mL of EDTA solution. An aliquot of AA solution was mixed with 3 mL of Oxone solution and completed to 25 mL with the stabilizing solution, resulting in a solution with 10 μg mL^−1 of AA. The same procedure was performed for the CS and PCL nanoparticles loaded with AA. The absorbance value of the solution containing only AA, minus the absorbance value of the solution containing AA and Oxone, was proportional to the concentration of AA present in the sample. For oxidation studies under aquarium conditions, 9 aquaria were used (3 per treatment), each containing a final volume of 3 L and fitted with an aeration pump. The parameters set for the experiment were 28 °C, pH 7 ± 0.5, and 25 µg mL^−1 of AA (the concentration used in the in vivo assays). At predetermined times, 1 mL aliquots were collected, and the amount of AA was determined using HPLC. The results were presented as % viable ascorbic acid. The assays were performed in triplicate (n = 3).
# [5] = AA release kinetics, two-compartment system, and mathematical modeling; assay type: physicochemical
# Protocol: The profiles of AA release from the nanoparticles were evaluated using a two-compartment system composed of a donor compartment (2 mL) and an acceptor compartment (50 mL), separated by a cellulose membrane (1000 Da exclusion pore size) under slight stirring and room temperature (25 °C). Aliquots (1 mL) were periodically collected from the acceptor compartment, with the volume being replaced with 1 mL of water to maintain a constant volume. The aliquots removed were analyzed by HPLC and the results were converted to percentages of released AA. The assays were performed in triplicate. Zero order, first order, Higuchi and Korsmeyer-Peppas mathematical models were used to elucidate the release mechanism of AA from all formulations.
# zebrafish larvae = assay: Zebrafish motor activity (distance traveled, speed); assay type: in vivo, Danio rerio
# Protocol: After 96 h, the larvae were distributed individually in 96-well plates, with each well containing 100 µL of embryo medium and 100 µL of test solution (total volume = 200 µL). The behaviors of the larvae were recorded individually for 10 min (at 28 °C) and were analyzed using EthovisionXT software (Noldus). The parameters considered were speed (mm/s) and distance covered.
# [6] = AA oxidation under aquarium conditions; assay type: physicochemical
# Protocol: as §2
# AChE = details: ref Sandahl et al. [76], cited from earlier work
smiles,measurement,setting,value
"O=C1O[C@H]([C@@H](O)CO)C(O)=C1O [AA, L-ascorbic acid]",mortality,"[1]; 400 mg/L, 96 h",75%
same,malformations compared to NPs_CS_AA at the same concentrations,[1]; 25 and 50 mg L^−1,higher numbers of malformations
same,hatching rate compared to the control group,"[1]; 100 and 200 mg L^−1, after 96 h",more pronounced decreases in hatching
same,LC10,"[1]; 96 h, probit analysis",53.0 µg/mL
same,LC20,"[1]; 96 h, probit analysis",148.3 µg/mL
same,LC30,"[1]; 96 h, probit analysis",217.1 µg/mL
same,LC40,"[1]; 96 h, probit analysis",275.8 µg/mL
same,hatching rate compared to the control group,[1]; after 48 h of exposure,lower
same,mortality,"[1]; all concentrations tested except 400 mg L^−1, 96 h",below 30%
same,LC50 at 96 h,[2],331 µg/mL
same,hatching rate,[3]; LC50 concentration,16.6%
same,malformations of embryos and larvae,[3]; LC50 dose,"edema and opacity of the yolk sac, edema of the pericardium, malformation of the tail, and bent spine"
same,AA concentration after addition of the oxidizing agent,"[4]; first minute, initial 10 μg mL^−1 AA, peroxymonosulfate",2.5 ± 0.01 µg/mL
same,time to total degradation of AA,[4]; peroxymonosulfate oxidizing agent,7 min
same,AA released (acceptor compartment),"[5]; after 60 min, 25 °C, water",39 ± 0.2%
same,AA released (acceptor compartment),[5]; after 210 min,51 ± 0.9%
same,"distance traveled, dose dependence","zebrafish larvae; LC10-LC50, 96 h exposure",dose-dependent increase in the distance traveled
same,"swimming speed, dose dependence","zebrafish larvae; LC10-LC50, 96 h exposure",dose-dependent increases in speed
same,distance traveled compared to the control group,"zebrafish larvae; LC50, 96 h exposure",significant (p < 0.05) increase in the distance traveled
same,distance traveled compared to the control group,zebrafish larvae; up to the LC30 concentration,shorter
same,time to total degradation of AA,[6],120 min
same,AA degraded,[6]; first 60 min,almost half
CCOP(=S)(OCC)Oc1nc(Cl)c(Cl)cc1Cl [chlorpyrifos],relative AChE activity compared to the control,AChE; at 0.6 µg L^−1,77.2%
same,exposure concentration with significant decreases in swimming activity,AChE,0.6 µg/L
